Measured values: patent US8044023B2, “Hepatitis C virus inhibitors” (Bristol-Myers Squibb Company, priority 2008, dated 2011)

Experiments:
NS3/4A BMS Strain = NS3/4A BMS Strain (UniProt P27958); assay: HCV NS3/4A protease complex enzyme assay; type: biochemical, Hepatitis C virus
Description: (§1) HCV NS3/4A protease complex enzyme assays and cell-based HCV replicon assays can be utilized in the present disclosure, and can be prepared, conducted and validated as described in the art (see, for Example, WO 2008/064061).
(§2) Compound 1 was tested as described above and found to have an IC50 (NS3/4A BMS Strain) of 4 nM. The EC50 is 5 nM.

HCV replicon = assay: cell-based HCV replicon assay; conditions: Hepatitis C virus
Description: as §1, §2

Chain of NS3/4A BMS Strain (P27958 1027-1657): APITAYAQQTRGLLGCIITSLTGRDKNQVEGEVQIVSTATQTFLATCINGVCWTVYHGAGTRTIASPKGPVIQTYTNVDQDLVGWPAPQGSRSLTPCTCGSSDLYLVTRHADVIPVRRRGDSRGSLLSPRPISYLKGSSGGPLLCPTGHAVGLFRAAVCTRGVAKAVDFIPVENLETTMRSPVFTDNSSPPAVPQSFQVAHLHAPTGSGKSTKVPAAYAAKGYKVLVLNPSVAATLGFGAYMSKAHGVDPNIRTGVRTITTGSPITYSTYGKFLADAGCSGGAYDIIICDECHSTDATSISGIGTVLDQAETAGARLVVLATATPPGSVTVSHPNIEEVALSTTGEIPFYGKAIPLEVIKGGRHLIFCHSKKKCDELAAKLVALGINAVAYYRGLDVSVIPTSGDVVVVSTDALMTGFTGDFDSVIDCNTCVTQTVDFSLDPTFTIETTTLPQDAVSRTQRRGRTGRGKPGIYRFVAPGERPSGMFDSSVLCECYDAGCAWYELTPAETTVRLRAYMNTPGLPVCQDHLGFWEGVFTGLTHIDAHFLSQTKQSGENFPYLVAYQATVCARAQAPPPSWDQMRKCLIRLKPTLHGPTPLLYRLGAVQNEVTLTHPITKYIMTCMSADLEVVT

**Q.** How did the IC50 (NS3/4A BMS Strain) turn out when `CCCCS[C@@]1(c2ccc(-c3ccccc3)cc2)C[C@H]2C(=O)N[C@]3(C(=O)NS(=O)(=O)C4CC4)C[C@H]3/C=C\CCCCC[C@H](NC(=O)OC(C)(C)C)C(=O)N2C1` [Compound 1, tert-butyl (2R,6S,13aS,14aR,16aS,Z)-2-(biphenyl-4-yl)-2-(butylthio)-14a-(cyclopropylsulfonylcarbamoyl)-5,16-dioxo-1,2,3,5,6,7,8,9,10,11,13a,14,14a,15,16,16a-hexadecahydrocyclopropa[e]pyrrolo[1,2-a][1,4]diazacyclopentadecin-6-ylcarbamate] was run?
**A.** Its IC50 is 4 nM.

**Q.** And the EC50 (HCV replicon)?
**A.** The EC50 was 5 nM.
